The values that follow come from patent US20060194800A1, “Pteridine derivatives as nitric oxide synthase activators” (University of Strathclyde, priority 2005, published 2006).

Entries after “also recorded” stand apart in the source; their conditions may differ.

One experiment relates to eNOS. Put plainly: eNOS immunostaining in endothelium of small pulmonary arteries of treated rats. It counts as in vivo, rat. The conditions noted are these: 14.1 mg/kg/day s.c. As to the method:
Rats were maintained in a chamber containing atmospheric air at 550 mbar for 14 days. […] A group of normotensive and a group of pulmonary hypertensive rats received daily subcutaneous injections of WSG1002 in a dose of 14.1 mg/kg/day during the time that they were in the hypoxic chamber. Other groups of normotensive and pulmonary hypertensive rats had no drugs and are used as control comparison groups. These studies used lungs from the four groups of rats (1) pulmonary hypertensive and treated with WSG1002, (2) normotensive and treated with WSG1002, (3) pulmonary hypertensive and not treated with WSG1002 (4) normotensive and not treated with WSG1002. The rat lungs were fixed with 4% formaldehyde, wax embedded, and 3 μm thick sections were cut. The sections were mounted on silanated slides, rehydrated and treated with 0.3% H2O2 to block endogenous peroxidase activity. Antigens were unmasked by treatment in a microwave oven. […] In the endothelium, the intensity of staining was quantified on a scale of 0-3, where 0=no staining or the same as the negative control, 1=faint staining or staining in a few target cells, 2=moderate staining in most target cells, 3=the maximum staining observed with that antibody in the positive control slides.

In a further experiment the test system is rat lungs. Put plainly: Calcium ionophore-induced pulmonary vasodilation in perfused lungs of rats treated with WSG1002. Format: in vivo. The conditions noted are these: 14.1 mg/kg/day s.c. As to the method: Rats were maintained in a chamber containing atmospheric air at 550 mbar for 14 days.
A group of normotensive and a group of pulmonary hypertensive rats received daily subcutaneous injections of WSG1002 in a dose of 14.1 mg/kg/day during the time that they were in the hypoxic chamber. Other groups of normotensive and pulmonary hypertensive rats had no drugs and are used as control comparison groups. These studies used lungs from the four groups of rats (1) pulmonary hypertensive and treated with WSG1002, (2) normotensive and treated with WSG1002, (3) pulmonary hypertensive and not treated with WSG1002 (4) normotensive and not treated with WSG1002.
The rats lungs were perfused at constant flow through the pulmonary artery with measurement of perfusion pressure and maintained at 37° C. […]
The lungs were precontracted with the thromboxane A2 mimetic, 9,11-dideoxy-11α,9α-epoxymethanoprostaglandin F2α (U46619, 3×10^−5 M) given as a bolus dose via an injection port. […] Following return to 20% O2, the lungs were precontracted again with a bolus dose of U46619 and relaxation responses to the endothelium-dependent vasorelaxant, calcium ionophore were measured by adding it in increasing doses to the perfusate. The data was plotted as concentration-response curves from which IC50 values were calculated using Biograph program by fitting the curves to the Hill equation y=RMax/(1+(x/EC50)ˆP).

For the next experiment, the target named is T1, iNOS (Mus musculus, UniProt P29477).
T1 construct: stimulated macrophages that produce iNOS; endogenous in cells; host or cells: primary mouse macrophages (from femur), LPS-stimulated, DAHP-treated
T1 sequence (P29477 whole entry): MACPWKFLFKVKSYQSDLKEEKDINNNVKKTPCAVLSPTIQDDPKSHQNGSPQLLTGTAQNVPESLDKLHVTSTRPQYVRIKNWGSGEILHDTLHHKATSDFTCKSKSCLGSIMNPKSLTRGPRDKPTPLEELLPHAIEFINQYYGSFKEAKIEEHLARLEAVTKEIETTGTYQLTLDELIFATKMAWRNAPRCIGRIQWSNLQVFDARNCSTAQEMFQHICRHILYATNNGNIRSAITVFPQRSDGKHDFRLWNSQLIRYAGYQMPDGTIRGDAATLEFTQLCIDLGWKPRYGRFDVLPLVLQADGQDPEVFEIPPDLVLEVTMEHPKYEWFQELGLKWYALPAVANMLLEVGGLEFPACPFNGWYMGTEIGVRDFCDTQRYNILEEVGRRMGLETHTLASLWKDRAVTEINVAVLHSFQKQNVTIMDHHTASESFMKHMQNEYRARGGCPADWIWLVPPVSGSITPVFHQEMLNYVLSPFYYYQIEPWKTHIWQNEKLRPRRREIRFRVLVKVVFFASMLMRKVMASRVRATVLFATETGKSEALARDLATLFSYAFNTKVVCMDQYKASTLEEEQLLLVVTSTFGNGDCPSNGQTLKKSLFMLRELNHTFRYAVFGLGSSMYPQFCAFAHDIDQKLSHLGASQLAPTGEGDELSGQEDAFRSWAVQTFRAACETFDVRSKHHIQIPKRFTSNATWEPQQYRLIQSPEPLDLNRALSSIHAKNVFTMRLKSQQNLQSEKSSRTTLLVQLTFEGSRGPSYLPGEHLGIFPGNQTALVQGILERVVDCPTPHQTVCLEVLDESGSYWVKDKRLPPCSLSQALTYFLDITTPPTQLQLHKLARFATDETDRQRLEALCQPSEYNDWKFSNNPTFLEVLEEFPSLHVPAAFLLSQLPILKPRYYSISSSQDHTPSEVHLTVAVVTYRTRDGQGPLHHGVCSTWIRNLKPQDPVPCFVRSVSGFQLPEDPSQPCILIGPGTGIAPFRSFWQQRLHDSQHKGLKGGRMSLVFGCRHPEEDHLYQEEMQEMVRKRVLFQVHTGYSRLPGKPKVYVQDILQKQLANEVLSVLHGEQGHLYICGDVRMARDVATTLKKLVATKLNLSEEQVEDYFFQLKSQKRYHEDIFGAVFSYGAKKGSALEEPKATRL
Put plainly: Macrophage assay (iNOS), macrophages depleted of tetrahydrobiopterin by DAHP. It counts as cell-based.

The test system of experiment [1] is rat pulmonary artery. Put plainly: Rat pulmonary artery ring relaxation (endogenous tetrahydrobiopterin present). The conditions noted are these: normal rings, phenylephrine-contracted. As to the method:
(§1) Rings (5 mm long) of rat pulmonary artery and aorta, were supported on a pair of intraluminal wires at 1 gm tension for one hour and then contracted with their EC50 phenylephrine concentration, which for pulmonary artery was 3.6×10^−8 M (derived from preliminary experiments) and for aorta was 11.8×10^−8 M (from the previously published literature). The rings were then relaxed with carbachol (10 μM). If the relaxation to carbachol was >75%, then the tissues were used to generate dose responses by addition of tetrahydrobiopterin (BH4) or the analogues. Stock BH4 was stored at −20° C. and the dilutions were prepared using saline just before adding the drug into the bath. Solutions of analogues were stored at 4° C. Cumulatively increasing concentrations of the analogues were added to the bath and the extent of relaxation was measured when it had stabilised. Another ring from the same rat was treated in parallel with the solvent for the analogue. The solvent used was NH4OH. The results are shown graphically in FIGS. 1 and 2.

In experiment [2] the test system is rat pulmonary artery. Put plainly: BH4 depleted (DAHP) rat pulmonary artery relaxation. As to the method: Rat pulmonary artery or aorta rings (as above) were placed in 15 ml tubes containing 2-3 ml of MEM (minimal essential medium) solution containing 0.1% bovine serum albumin, 100 U/ml penicillin and […] streptomycin. Some of the tubes in addition received diamino-hydroxy-pyrimidine (DAHP) 10^−2 M, an inhibitor of GTP cyclohydrolase, the rate-limiting step in tetrahydrobiopterin synthesis. The tubes were incubated at 37° C. for six hours. […] After the incubation with DAHP or the control incubation with the medium (MEM) alone, the rings were removed and then their relaxation in response to the analogue (or solvent NH4OH) was tested as above. Dose response curves of DAHP-treated tissues were compared to the control tissues treated in MEM alone for 6 hrs. The results are shown graphically in FIGS. 3 and 4. […] Thus WSG1002 is acting to enhance the ability of the endothelium to form NO and is not acting merely as a NO donor. The above procedures were used to mimic cardiovascular disease, by treating aorta and pulmonary artery rings with an inhibitor of the enzyme GTP cyclohydrolase, which is the rate-limiting step in the formation of tetrahydrobiopterin by cells. Treatment with this inhibitor, DAHP, for 6 hours reduced endogenous tetrahydrobiopterin levels in arteries to 4% of the normal content. […] This was found in both pulmonary artery and aorta (FIGS. 3 and 4). […] The only effect seen was a contraction—the opposite to the action of WSG1002—at the highest concentration of tetrahydrobiopterin. […] WSG1002 has an EC50 of approximately 10 nM.

The test system of a further experiment is rat aorta. Kind of experiment: Rat aorta ring relaxation (endogenous tetrahydrobiopterin present). The conditions noted are these: normal rings, phenylephrine-contracted. On the procedure: as §1

Description for iNOS: This is a cell based assay with lipopolysaccharide stimulated macrophages in which nitric oxide is produced by the action of iNOS. Primary cultures of macrophage cells isolated from mouse femur were produced over a 7 day period. At this stage the cells were seeded into 96-well culture plates at a density of 2×10^5 cells per well. After further incubation for 24 hrs, the well media was changed and the relevant treatment was introduced. The cells were then incubated for a further 72 hrs before 50 μl was removed from each well and combined with 100 μl of Greiss reagent for NO2 determination. All treatments were performed in triplicate. In each plate, 3 wells were designated control i.e. media change only-no LPS. These samples represent basal NO2 output over 72 hrs. 3 wells were used for LPS (0.5 μg/ml) stimulation alone and 3 wells were used for LPS+0.05% DMSO. This DMSO concentration was present in all subsequent analogue treated wells. All analogues were tested at 1.0 and 10 μM. In another set of experiments, the assay was repeated with the inclusion of a step to deplete endogenous tetrahydrobiopterin as in the artery ring studies. DAHP pre-treatment was employed to deplete the macrophage cells of endogenous tetrahydrobiopterin. In these experiments, DAHP (10^−2 M) was added to the cells for 24 hrs prior to seeding into 96-well plates and for 24 hrs following the seeding procedure. Thereafter, DAHP was present throughout the analogue treatment period of 72 hrs. […] Macrophages were initially depleted of tetrahydrobiopterin by incubation with DAHP.

Regarding `CC(=O)C1=Nc2c(nc(N)[nH]c2=O)NC1(C)C` [wsg1002, 6-Acetyl-2-amino-7,7-dimethyl-7,8-dihydro-3H-pteridin-4-one], the “eNOS staining in small pulmonary artery endothelium” value in the experiment with eNOS (normotensive rats) is on record as “increased staining for eNOS”; in the experiment with eNOS (pulmonary hypertensive rats vs treated normotensive) it was “no further increase”. The “IC50 for calcium ionophore relaxation” value with rat lungs (normotensive rats, untreated 1.5 μM) came to 1100 nM; in the experiment with rat lungs (pulmonary hypertensive (hypoxic) rats, untreated 1.7 μM), 1200 nM. Also, on iNOS (72 h, tested at 1 microM in macrophages, P = promotes NOS activity, read-out: iNOS effect *H155), the activation at 1 µM lay within 20 to 50%. For the same compound, the “stimulation of nitric oxide synthesis vs controls” value at iNOS (DAHP 10^-2 M depleted macrophages, 72 hrs) is recorded as “increases were statistically significant”. In addition, the “relaxation of rat pulmonary artery rings” value in the experiment with rat pulmonary artery [1] is “no action; also recorded: no effect”; in the experiment with rat pulmonary artery [2] (DAHP 10^-2 M for 6 h, tetrahydrobiopterin depleted), “significant and physiologically important vasodilatation; also recorded: substantial relaxation”. Besides, in the experiment with rat pulmonary artery [2] (L-NAME 100 μM, same result in normal and DAHP-treated rings), the “relaxation of pulmonary artery ring in presence of L-NAME” value was “no relaxation”. In the experiment on rat pulmonary artery [2] (Rattus norvegicus, DAHP-treated artery rings, tissue not specified), the EC50 was roughly 10 nM. Also, the “relaxation of rat aorta rings” value in the experiment with rat aorta is reported as “no action; also recorded: no effect”.

The term EC50 denotes the concentration giving half of the maximal effect.
